Laboratory results from US20230295564A1, “Galectin-9 Specific Binding Agents for Use in Treating Cancer” (Emory University, priority 2020, published 2023).
Like-named read-outs stand apart in the source and are kept apart here.

Key:
[1] = test system: mB-ALL cell cultures; test: ACM-induced chemoresistance in mB-ALL cell cultures; assay type: cell-based, murine
[2] = test system: human B-ALL cell lines; test: Annexin-V/PI cell death of human B-ALL cell lines pre-conditioned with RPMI, SCM or ACM
Description: Human B-ALL cell lines (Nalm6, REH,) were cultured for 24 hours in unconditioned medium (RPMI), stromal cell-conditioned medium (SCM), or adipocyte-conditioned medium (ACM) and then treated with anti-GAL-9 antibody (αGAL-9 Ab) or an IgG control antibody (IgG ctrl) for an additional 2 days with or without MTX. The percentage of apoptotic and dead cells on day 3 of culture was determined using Annexin-V/ PI staining followed by flow cytometric analysis.
Thus, additional experiments were performed to determine how adipocyte-conditioned medium (ACM)-exposed B-ALL cells responded to chemotherapy treatment. In obese patients, leukemia cells would be exposed to an adipocyte-rich microenvironment prior to chemotherapy administration. To mimic this scenario in vitro, human B-ALL cell lines were pre-treated for 24 hours with unconditioned medium (RPMI), stromal cell-conditioned medium (SCM), or ACM prior to the addition of methotrexate (MTX) for 2 days.

[3] = test system: murine BCR-ABL+ Arf-/- B-ALL (mB-ALL); conditions: for survival: once weekly from day 7, MTX 0.75 mg/kg, αGAL-9 Ab 1.5 mg/kg
Description: Lean and obese mice were inoculated intravenously with murine Bcr-Abl+ Arf-/- B-ALL cells (mB-ALL). On day 7 post-inoculation, when GFP+ leukemic blasts were detected in the peripheral blood, treatment with DMSO (Vehicle, n=10), 0.75 mg/kg methotrexate (MTX, n=10), 1.5 mg/kg anti-galectin-9 antibody (αGAL-9 Ab, n=10), or (MTX + αGAL-9 Ab) a combined was initiated. Treatments were administered once weekly. Survival was monitored and significance was determined using the log-rank test with “A” representing a statistically significant difference between vehicle and MTX-treated mice, “B” between vehicle and anti-Gal-9 treated groups, and “C” between vehicle and MTX + anti-Gal-9 treated mice.
A murine BCR-ABL+ Arf-/- B-ALL (mB-ALL) model was used to test whether treatment with anti-GAL-9 antibody could be used as a therapy to treat obese mice with B-ALL. […] C57BL/6 mice were maintained on lean and high-fat diets as previously described and then challenged with mB-ALL. Treatment with vehicle, MTX, anti-GAL-9 antibody, or a combination of MTX and anti-GAL-9 antibody was initiated on day 7 after leukemia inoculation, when GFP+ B-ALL cells were detected in the peripheral blood.

| Structure (SMILES) | chemoresistance induced by ACM [1] | resistance induced by exposure to ACM [2] | survival ([3]; lean mice) | weight loss ([3]; obese mice) | survival ([3]; obese mice) | decrease of MTX-induced cell death ([2]; cultures pre-treated with ACM) | MTX-induced cell death, effect of pre-conditioning ([2]; pre-conditioning with SCM) |
| --- | --- | --- | --- | --- | --- | --- | --- |
| COc1cccc2c1C(=O)c1c(O)c3c(c(O)c1C2=O)C[C@@](O)(C(=O)CO)C[C@@H]3O[C@H]1C[C@H](N)[C@H](O)[C@H](C)O1 [doxorubicin] | induced chemoresistance | induced resistance |  |  |  |  |  |
| CN(Cc1cnc2nc(N)nc(N)c2n1)c1ccc(C(=O)N[C@@H](CCC(=O)O)C(=O)O)cc1 [MTX, methotrexate] | induced chemoresistance |  | significantly extended the survival | loss substantial weight | not significantly protected | 40-70% | not impacted |
| CC[C@]1(O)C[C@H]2CN(CCc3c([nH]c4ccccc34)[C@@](C(=O)OC)(c3cc4c(cc3OC)N(C=O)[C@H]3[C@@](O)(C(=O)OC)[C@H](OC(C)=O)[C@]5(CC)C=CCN6CC[C@]43[C@@H]65)C2)C1 [vincristine] |  | induced resistance |  |  |  |  |  |
